Data on three molecules can be found in patent publication US4822811A, “Carbazole lipoxygenase inhibiting compounds, compositions and use” (Abbott Laboratories, priority 1988, dated 1989).

One may read the IC50 as the midpoint of a concentration-inhibition curve.

SMILES strings stand for the structures.

For the assay, the target named is T1, 5-lipoxygenase (Rattus norvegicus, UniProt P12527).
T1 construct: 20,000xg supernatant from 6×10^4 homogenized RBL-1 cells; endogenous in cells; host or cells: RBL-1 cells (20,000xg supernatant of homogenate)
T1 sequence (P12527 1-673): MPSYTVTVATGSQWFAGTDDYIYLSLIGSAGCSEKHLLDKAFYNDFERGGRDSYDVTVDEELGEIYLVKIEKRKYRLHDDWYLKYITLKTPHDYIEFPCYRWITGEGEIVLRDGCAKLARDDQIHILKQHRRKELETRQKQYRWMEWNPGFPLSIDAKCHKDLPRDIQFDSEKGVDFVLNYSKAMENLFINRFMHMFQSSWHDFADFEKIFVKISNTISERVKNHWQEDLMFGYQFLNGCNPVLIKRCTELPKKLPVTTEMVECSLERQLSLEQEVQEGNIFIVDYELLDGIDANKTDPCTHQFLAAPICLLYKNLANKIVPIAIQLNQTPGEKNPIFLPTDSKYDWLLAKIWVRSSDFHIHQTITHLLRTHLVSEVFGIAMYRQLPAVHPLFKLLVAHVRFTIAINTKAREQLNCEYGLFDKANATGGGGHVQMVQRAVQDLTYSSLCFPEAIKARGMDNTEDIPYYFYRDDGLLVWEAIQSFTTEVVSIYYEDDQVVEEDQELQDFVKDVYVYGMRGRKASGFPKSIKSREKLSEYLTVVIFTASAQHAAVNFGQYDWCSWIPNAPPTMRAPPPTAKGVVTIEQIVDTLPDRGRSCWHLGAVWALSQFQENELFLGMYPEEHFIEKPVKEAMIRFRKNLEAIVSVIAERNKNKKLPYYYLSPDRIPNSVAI
Kind of assay: Lipoxygenase IC50 Determination (in vitro 5-lipoxygenase inhibition, 20,000xg supernatant from homogenized RBL-1 cells). The class given is biochemical. The conditions noted are these: radiolabelled arachidonic acid, 2% DMSO, triplicate incubations, read-out: In vitro 5-lipoxygenase inhibitory potency IC50. As for the experimental part: Lipoxygenase IC50 Determination
Assays to determine 5-lipoxygenase activity were performed in […] incubations containing the 20,000xg supernatant from 6×10^4 homogenized RBL-1 cells, 2% DMSO vehicle and various concentrations of the test compound. Reactions were initiated by addition of radiolabelled arachidonic acid and terminated by acidification and ether extraction. Reaction products were separated from nonconverted substrate by thin layer chromatography and measured by liquid scintillation spectroscopy. All treatments were evaluated in triplicate incubations. Inhibition of 5-lipoxygenase activity was computed by comparison of the quantity of products formed in the treatment incubations to the mean product formation in vehicle control groups (n=8). IC50 values and 95% confidence limits were computed by linear regression analysis of percentage inhibition versus log inhibitor concentration plots. The results of the assay indicate that the compounds are inhibitors of 5-lipoxygenase.
Turning to `CCn1c2ccccc2c2cc(CN(O)C(=O)NC)ccc21` [Example 4, N-hydroxy-N-(9-ethylcarbaz-3-ylmethyl) N-methyl urea], the half-maximal inhibitory concentration (IC50) is 0.39 µM.
For `CC(=O)N(O)C(C)c1ccc2oc3ccccc3c2c1` (stereo not drawn) [Example 1] the value was 0.29 µM.
For `CCn1c2ccccc2c2cc(C(C)N(O)C(N)=O)ccc21` (stereo not drawn) [Example 5, N-hydroxy-N-[1-(9-ethylcarbaz-3-yl)ethyl] urea] the value was 0.38 µM.
